Consider three compounds from US8389512B2 (priority 2008, dated 2013).

A word on the MRT: it is the average time that molecules of a dose stay in the body. As a reminder, the Cmax is the highest concentration seen after dosing. The term bioavailability denotes dose-corrected exposure relative to a reference, in per cent.

Data set [1] can be described thus: 4 hr in-vivo study: meloxicam plasma concentration after oral delivery to rats. As to conditions: rat.
Description: Male Sprague-Dawley rats, 250-300 g, received with a surgically implanted jugular catheter in place from (Harlan or Taconic Laboratories, USA). Animals were housed one per polycarbonate cage utilizing individual cage cards, with free access to food and water in accordance with NIH guidelines. Animals were quarantined at least 24 hrs after arrival prior to use and patency of the implanted catheter determined on the day of the test. Environmental controls for the animal room were set to maintain 18 to 26° C., a relative humidity of 30 to 70%, a minimum of 10 air changes/hour, and a 12-hour light/12-hour dark cycle. […] Each rat was weighed and the dose volume adjusted accordingly so that the effect of weight variability on results of study was eliminated and that each rat received 1 mg/kg dose.
Briefly, using a gradient elution with a Waters Symmetry C18 column (Waters Inc. USA), LCMS with selective reaction monitoring, protein precipitation of the plasma sample using acetonitrile where an LOQ of 50 ng/ml was achieved. Pharmacokinetic parameters were calculated from individual animal samples using appropriate software (PK Solutions 2.0, Summit Research Services, Montrose, Calif., USA).
The nature of data set [2]: 24 hr in-vivo study: meloxicam plasma concentration and pharmacokinetics after oral (gavage) administration to male rats. Particulars: for meloxicam plasma concentration / AUC (area under the plasma concentration-time curve at 24 h) / Cmax (peak plasma concentration) / F (bioavailability) / Time to Reach 0.59 μg/ml: male rats, 1 mg/kg oral; for AUC (area under the plasma concentration-time curve at 24 h) / Cmax (peak plasma concentration) / F (bioavailability): mean N = 5; for Time to Reach 0.59 μg/ml: calculated by interpolation of time vs. concentration data. The text has this: Male Sprague-Dawley rats, 250-300 g, received with a surgically implanted jugular catheter in place from (Harlan or Taconic Laboratories, USA). Animals were housed one per polycarbonate cage utilizing individual cage cards, with free access to food and water in accordance with NIH guidelines. Animals were quarantined at least 24 hrs after arrival prior to use and patency of the implanted catheter determined on the day of the test. Environmental controls for the animal room were set to maintain 18 to 26° C., a relative humidity of 30 to 70%, a minimum of 10 air changes/hour, and a 12-hour light/12-hour dark cycle. Rats historically have been used in safety evaluation and PK screening studies and are recommended by appropriate regulatory agencies. […] Each rat was weighed and the dose volume adjusted accordingly so that the effect of weight variability on results of study was eliminated and that each rat received 1 mg/kg dose.
(§1) Pharmacokinetic parameters were calculated from individual animal samples using appropriate software (PK Solutions 2.0, Summit Research Services, Montrose, Calif., USA).

Data set [3] can be described thus: Accelerated stability testing of cocrystals (PXRD, FTIR). As to conditions: 2 months at 40° C.
A short description of data set [4]: IV comparator group, meloxicam pharmacokinetics in rats. In kind it is in vivo. Particulars: Sprague-Dawley, rat, plasma, 1 mg/kg, PEG400:DMSO formulation. On the procedure:
In addition, IV comparator group of 5 rats was used to calculate MAT (mean absorption time) and ka (absorption rate constant) parameters since such parameters cannot be determined for the oral groups.
200 micro liters of blood withdrawn from the indwelling intravenous catheter at 5 minutes, 15 minutes, 30 minutes, 45 minutes, 1, 2, 4, 8, 12 and 24 hours to provide sufficient amount of serum for analysis.
as §1

The conditions of data set [5]: cited from earlier work.
[6] abbreviates: male, Sprague-Dawley, rat, plasma, po, 1 mg/kg.

“Meloxicam:Aspirin Cocrystal (1:1) [Cocrystal 73]”: the meloxicam plasma concentration was 0 µg/mL in data set [1] (time 0 min); 26.94 µg/mL in data set [1] (time 15 min); 42.67 µg/mL in data set [1] (time 30 min); 50.18 µg/mL in data set [1] (time 45 min); 52.67 µg/mL in data set [1] (time 60 min); 59.23 µg/mL in data set [1] (time 120 min). In addition, the meloxicam plasma concentration in data set [1] (time 240 min) is 60.85 µg/mL; in data set [2] (N = 5, 0.0833 hour), 0.13 µg/mL; in data set [2] (N = 5, 0.25 hour) it was 0.87 µg/mL; in data set [2] (N = 5, 0.5 hour), 1.14 µg/mL; in data set [2] (N = 5, 0.75 hour), 1.37 µg/mL; in data set [2] (N = 5, 1 hour) it was 1.74 µg/mL. In addition, the meloxicam plasma concentration was found to be 2.49 µg/mL in data set [2] (N = 5, 2 hour); 2.51 µg/mL in data set [2] (N = 5, 4 hour); 2.34 µg/mL in data set [2] (N = 5, 8 hour); 1.83 µg/mL in data set [2] (N = 5, 12 hour); 1.16 µg/mL in data set [2] (N = 5, 24 hour). In addition, in data set [2], the “AUC (area under the plasma concentration-time curve at 24 h)” value turned out to be 44100 ng·h/mL. Also, the “Cmax (peak plasma concentration)” value in data set [2] was 2700 ng/mL. The “F (bioavailability)” value in data set [2] was determined as 69.4%. In addition, in data set [2], the “Time to Reach 0.59 μg/ml” value is 10.6 min. The “Stability in accelerated stability testing (PXRD profiles)” value in data set [3] (75% RH open and closed vials, and 6 months at 40° C. open vial) was “stable for 6 months”. The “Stability in accelerated stability testing (FTIR profiles)” value in data set [3] (75% RH, vials open or closed) is listed as “stable for 2 months”.

For `Cc1cnc(NC(=O)C2=C(O)c3ccccc3S(=O)(=O)N2C)s1` [Meloxicam, (8E)-8-[hydroxy-[(5-methyl-1,3-thiazol-2-yl)amino]methylidene]-9-methyl-10,10-dioxo-10λ^6-thia-9-azabicyclo[4.4.0]deca-1,3,5-trien-7-one, reference compound], the AUC in data set [4] (read-out: AUC (area under the plasma concentration-time curve at 24 h)) was 63600 ng·h/mL. In data set [4] (read-out: MRT (mean residence time)), the mean residence time (MRT) was 14.7 h. In addition, the solubility in methanol entry in data set [5] (methanol) is recorded as “very slightly soluble”. The “solubility in strong acids and bases” value in data set [5] (strong acids and bases, compared with water) is reported as “higher solubility”. Besides, the solubility in water result in data set [5] (water) is recorded as “practically insoluble”. Besides, the concentration at 0 min in data set [1] (male, Sprague-Dawley, plasma, 1 mg/kg, time 0 min) was 0 ng/mL. The compound further registered a concentration at 15 min in data set [1] (male, Sprague-Dawley, plasma, 1 mg/kg, time 15 min) of 8190 ng/mL. Further, the concentration at 30 min in data set [1] (male, Sprague-Dawley, plasma, 1 mg/kg, time 30 min) stood at 14800 ng/mL. In data set [1] (male, Sprague-Dawley, plasma, 1 mg/kg, time 45 min), this compound gave a concentration at 45 min of 19600 ng/mL. The same compound came in with a concentration at 60 min in data set [1] (male, Sprague-Dawley, plasma, 1 mg/kg, time 60 min) of 24000 ng/mL. Moreover, the concentration at 120 min in data set [1] (male, Sprague-Dawley, plasma, 1 mg/kg, time 120 min) was determined as 30200 ng/mL. In addition, the concentration at 240 min in data set [1] (male, Sprague-Dawley, plasma, 1 mg/kg, time 240 min) is 39400 ng/mL. Further, the “Time to Reach 0.59 μg/ml” value in data set [2] is 270.0 min. In data set [2] (setting [6]), this compound showed an AUC of 10000 ng·h/mL, a peak concentration (Cmax) of 590 ng/mL, an MRT of 21.8 h and a bioavailability of 15.7%. Also, in data set [2] (setting [6]), the concentration at 0.0833 hour was determined as 20 ng/mL, the concentration at 0.25 hour came to 190 ng/mL, the concentration at 0.5 hour was 280 ng/mL and the concentration at 0.75 hour is 320 ng/mL. In data set [2] (setting [6]), this compound gave a concentration at 1 hour of 390 ng/mL, a concentration at 2 hour of 510 ng/mL, a concentration at 4 hour of 540 ng/mL and a concentration at 8 hour of 530 ng/mL. In data set [2] (setting [6]), the concentration at 12 hour worked out at 460 ng/mL and the concentration at 24 hour came out at 240 ng/mL.

As to `Cc1cnc(NC(=O)C2=C(O)c3ccccc3S(=O)(=O)N2C)s1.O=C(O)c1ccccc1O` [Cocrystal 88, Meloxicam:Salicylic Acid Cocrystal Form III (1:1)], the meloxicam plasma concentration in data set [1] (time 15 min) turned out to be 42.10 µg/mL; in data set [1] (time 30 min), 38.19 µg/mL; in data set [1] (time 45 min) it was 40.48 µg/mL; in data set [1] (time 60 min) it was 41.18 µg/mL; in data set [1] (time 120 min), 40.50 µg/mL; in data set [1] (time 240 min), 49.13 µg/mL. Moreover, the meloxicam plasma concentration was 0.7675 µg/mL in data set [2] (N = 5, 0.25 hour) and 0.8975 µg/mL in data set [2] (N = 5, 0.5 hour). Further, the “AUC (area under the plasma concentration-time curve at 24 h)” value in data set [2] is 29600 ng·h/mL. In addition, in data set [2], the “Cmax (peak plasma concentration)” value worked out at 2230 ng/mL. For the same compound, in data set [2], the “F (bioavailability)” value turned out to be 46.5%. Moreover, the “Time to Reach 0.59 μg/ml” value in data set [2] is 11.3 min.
